Results: PubChem BioAssay AID256 (DTP/NCI, 2004)
Several values for one entry are separate records, joined by “and”; a condition that tells them apart may be missing. Equal values may be shown once. Inconclusive results and toxic doses are left out. How the source made its calls: active means survival T/C of 150% or more; inactive means T/C below 125% in these data.

Tested on: CD2F1 mice, L1210 leukemia ip, survival T/C
Test: NCI In Vivo Anticancer Drug Screen. Data for tumor model L1210 Leukemia (intraperitoneal) in CD2F1 (CDF1) mice
Details: endpoint: mean survival time, higher = longer survival
Method in brief: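 Antitumor effect is scored in animals hosting a serially transplanted tumor. Values compare compound-dosed animals against vehicle-only controls as a simple quotient.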

[1] = dose: 100.0 mg/kg/injection, schedule: Q01DX009 (ip), vehicle: saline with Tween-80
[2] = dose: 200.0 mg/kg/injection, schedule: Q01DX009 (ip), vehicle: saline with Tween-80
[3] = dose: 400.0 mg/kg/injection, schedule: Q01DX009 (ip), vehicle: saline with Tween-80
[4] = dose: 100.0 mg/kg/injection, schedule: Q04DX002 (ip), vehicle: saline with Tween-80
[5] = dose: 100.0 mg/kg/injection, schedule: Q04DX003 (ip), vehicle: saline with Tween-80
[6] = dose: 200.0 mg/kg/injection, schedule: Q04DX003 (ip), vehicle: saline with Tween-80
[7] = dose: 400.0 mg/kg/injection, schedule: Q04DX003 (ip), vehicle: saline with Tween-80

Measured: T/C

NC(=O)N/N=C/C(c1ccccc1)c1ccccc1
inactive: [1] 105 % of control | [2] 94 % of control | [3] 103 % of control

CC(C)(C)/[N+]([O-])=C/Cc1ccccc1
inactive: dose: 25.0 mg/kg/injection, schedule: Q04DX002 (ip), vehicle: saline with Tween-80 97 % of control | dose: 50.0 mg/kg/injection, schedule: Q04DX002 (ip), vehicle: saline with Tween-80 110 % of control | [4] 110 % of control

CN1C2CCC1CC(OC(=O)c1ccccc1)C2 (stereo not given)
inactive: dose: 100.0 mg/kg/injection, schedule: Q04DX002 (ip), vehicle: Klucel (hydroxypropylcellulose) (HPC) 121 % of control | dose: 200.0 mg/kg/injection, schedule: Q04DX002 (ip), vehicle: Klucel (hydroxypropylcellulose) (HPC) 90 % of control | dose: 400.0 mg/kg/injection, schedule: Q04DX002 (ip), vehicle: Klucel (hydroxypropylcellulose) (HPC) 100 % of control

O=S(=O)(N1CCCCC1)N1CCNCC1
inactive: dose: 5.0 mg/kg/injection, schedule: Q01DX009 (ip), vehicle: saline with Tween-80 98 % of control | dose: 5.0 mg/kg/injection, schedule: Q04DX003 (ip), vehicle: saline with Tween-80 103 % of control | dose: 10.0 mg/kg/injection, schedule: Q01DX009 (ip), vehicle: saline with Tween-80 98 % of control | dose: 10.0 mg/kg/injection, schedule: Q04DX003 (ip), vehicle: saline with Tween-80 103 % of control | dose: 20.0 mg/kg/injection, schedule: Q01DX009 (ip), vehicle: saline with Tween-80 96 % of control | dose: 20.0 mg/kg/injection, schedule: Q04DX003 (ip), vehicle: saline with Tween-80 97 % of control

CCCCCCCCN(C#N)CCCCCCCC
inactive: [1] 100 % of control | [2] 95 % of control | [3] 97 % of control

CCOC(=O)c1c(O)csc1N
inactive: [5] 110 % of control | [6] 98 % of control | [7] 98 % of control

O=C(O)C1CC1c1ccccc1 (stereo not given)
inactive: [5] 95 % of control | [6] 103 % of control | [7] 100 % of control

O=C(CC([Se]c1ccccc1)c1ccccc1)c1ccccc1 (stereo not given)
inactive: dose: 50.0 mg/kg/injection, schedule: Q01DX009 (ip), vehicle: saline sonified 102 % of control | dose: 100.0 mg/kg/injection, schedule: Q01DX009 (ip), vehicle: saline sonified 102 % of control | [5] 105 % of control | dose: 200.0 mg/kg/injection, schedule: Q01DX009 (ip), vehicle: saline sonified 105 % of control | [6] 104 % of control

O=C(NC(COCc1ccccc1)C(=O)O)OCc1ccccc1 (stereo not given)
inactive: [5] 88 % of control | [6] 92 % of control | [7] 100 % of control

CCC[CH2][Sn]1([CH2]CCC)[O]C2C(CO)OC(n3ccc4c(N)ncnc43)C2[O]1 (stereo not given)
inactive: dose: 0.39 mg/kg/injection, schedule: Q01DX005 (ip), vehicle: water 97 % of control | dose: 0.78 mg/kg/injection, schedule: Q01DX005 (ip), vehicle: water 103 % of control | dose: 1.56 mg/kg/injection, schedule: Q01DX005 (ip), vehicle: other 111 % of control | dose: 1.56 mg/kg/injection, schedule: Q01DX005 (ip), vehicle: water 90 % of control | dose: 3.13 mg/kg/injection, schedule: Q01DX005 (ip), vehicle: other 95 % of control | dose: 3.13 mg/kg/injection, schedule: Q01DX005 (ip), vehicle: water 106 % of control

O=c1[nH]cc[nH]1
inactive: dose: 267.0 mg/kg/injection, schedule: Q01DX009 (ip), vehicle: saline 111 % of control

Cc1cc([N+](=O)[O-])ccc1NC(=S)NC(=O)COc1ccccc1
inactive: dose: 100.0 mg/kg/injection, schedule: Q01DX001 (ip), vehicle: saline with Tween-80 95 % of control | [1] 93 % of control and 102 % of control | [4] 95 % of control | [5] 98 % of control | dose: 200.0 mg/kg/injection, schedule: Q01DX001 (ip), vehicle: saline with Tween-80 89 % of control | [2] 93 % of control | dose: 200.0 mg/kg/injection, schedule: Q04DX002 (ip), vehicle: saline with Tween-80 91 % of control | [6] 97 % of control | dose: 400.0 mg/kg/injection, schedule: Q01DX001 (ip), vehicle: saline with Tween-80 87 % of control | [3] 92 % of control | [7] 93 % of control
